# Patent US20080081788A1, “Diagnosis and treatment for immunoglobulin E (IgE) implicated disorders” (priority 2002, published 2008)
# Read-outs that look alike come from different tables or passages of the source. Ends that are not written are not given here.
# Experiments:
# [1] = in vivo
# IgE = format: in vivo, human; conditions: for IgE levels in saliva: ELISA titer, Normal 16200, Glucotrol 15 mg/day, LT-10 2 mg/day or both
# Myoglobin = format: in vivo, human; conditions: for Myoglobin levels in saliva: ELISA titer, Normal 1800, Glucotrol 15 mg/day, LT-10 2 mg/day or both
# Insulin = format: in vivo, human; set-up: Insulin levels in saliva: unit not given here; conditions: for Insulin levels in saliva: ELISA titer, Normal 600, Glucotrol 15 mg/day, LT-10 2 mg/day or both
# [2] = format: in vivo, human; conditions: seven days, compared with expt #1 and #2
# NGF = format: in vivo, human; conditions: for NGF levels in saliva: ELISA titer, Normal 1200, Glucotrol 15 mg/day, LT-10 2 mg/day or both
compound,measurement,setting,value
LKAMDPTPPL [LT-10],side effects,[1],no observable side effects
Cc1cnc(C(=O)NCCc2ccc(S(=O)(=O)NC(=O)NC3CCCCC3)cc2)cn1 [Glucotrol],IgE levels in saliva,IgE; Day 1,145800
same,IgE levels in saliva,IgE; Day 2,148600
same,IgE levels in saliva,IgE; Day 3,145800
same,IgE levels in saliva,IgE; Day 4,148600
same,IgE levels in saliva,IgE; Day 5,148600
same,IgE levels in saliva,IgE; Day 6,145800
same,IgE levels in saliva,IgE; Day 7,145800
same,"effect on IgE levels in saliva, in words",IgE; treatment for seven days,does not contribute in lowering IgE levels
same,Myoglobin levels in saliva,Myoglobin; Day 1,1800
same,Myoglobin levels in saliva,Myoglobin; Day 2,3600
same,Myoglobin levels in saliva,Myoglobin; Day 3,3600
same,Myoglobin levels in saliva,Myoglobin; Day 4,2700
same,Myoglobin levels in saliva,Myoglobin; Day 5,2700
same,Myoglobin levels in saliva,Myoglobin; Day 6,2700
same,Myoglobin levels in saliva,Myoglobin; Day 7,3500
same,myoglobin level at completion point (FIG. 1),"Myoglobin; end of seven days, times the normal level",increased the level of myoglobin
same,"effect on myoglobin levels in saliva, in words",Myoglobin; treatment for seven days,contributes in increasing myoglobin levels
same,Insulin levels in saliva,Insulin; Day 1,1200
same,Insulin levels in saliva,Insulin; Day 2,800
same,Insulin levels in saliva,Insulin; Day 3,800
same,Insulin levels in saliva,Insulin; Day 4,900
same,Insulin levels in saliva,Insulin; Day 5,750
same,Insulin levels in saliva,Insulin; Day 6,800
same,Insulin levels in saliva,Insulin; Day 7,900
same,"effect on Insulin levels in saliva, in words",Insulin; treatment for seven days,contributes m lowering Insulin levels
same,"effect on glucose level, in words",[2],did not make appreciable difference
same,NGF levels in saliva,NGF; Day 1,2700
same,NGF levels in saliva,NGF; Day 2,8100
same,NGF levels in saliva,NGF; Day 3,5400
same,NGF levels in saliva,NGF; Day 4,5400
same,NGF levels in saliva,NGF; Day 5,2700
same,NGF levels in saliva,NGF; Day 6,2700
same,NGF levels in saliva,NGF; Day 7,5400
same,"effect on NGF levels in saliva, in words",NGF; treatment for seven days,perhaps increases NGF levels
